Results published in US20100298314A1, “NOVEL JNK INHIBITORS” (Schering Corporation, priority 2006, published 2010).
Where “and” joins values, the source holds several entries; their conditions need not be identical. Equal entries are not always repeated. Where two headings read alike, the source gives them in different places.

Key:
Type in all cases: biochemical
[1] = molecular target: JNK2 (Homo sapiens, UniProt P45984); test: JNK2 kinase DELFIA (phosphorylation of biotinylated GST-ATF2); details: final ATP 4 uM, reported as range for a group
JNK2, sequence (P45984 whole entry, species assumed): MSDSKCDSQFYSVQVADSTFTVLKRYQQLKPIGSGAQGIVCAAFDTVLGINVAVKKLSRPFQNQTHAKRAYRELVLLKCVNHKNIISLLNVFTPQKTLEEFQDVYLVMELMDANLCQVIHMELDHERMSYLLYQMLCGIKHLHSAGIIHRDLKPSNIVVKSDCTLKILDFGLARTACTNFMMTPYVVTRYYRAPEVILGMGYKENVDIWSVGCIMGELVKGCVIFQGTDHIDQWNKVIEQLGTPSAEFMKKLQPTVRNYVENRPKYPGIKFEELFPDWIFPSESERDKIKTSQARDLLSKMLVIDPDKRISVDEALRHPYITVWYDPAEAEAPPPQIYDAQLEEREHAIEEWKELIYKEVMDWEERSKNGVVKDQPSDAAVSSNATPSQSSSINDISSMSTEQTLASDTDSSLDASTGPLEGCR
Protocol: (§1) Before initiation of kinase reactions, compounds were pre-incubated with the enzyme for 10 minutes. Pre-incubation reactions contained 50 mM HEPES pH 7.3, 10 mM MgCl2, 1 mM DTT, 75 mM NaCl, 1 mM EDTA, 1 mM EGTA, 0.01% CHAPS, 2 nM JNK1, 6 ug/mL biotinylated GST-ATF2, 0.1 mg/ml BSA, 5% DMSO and 0-100 μM compound in a total volume of 40 μL. After a 10 minute room temperature pre-incubation, 10 μL of 35 μM ATP was added to start the reaction (final concentration of ATP=7 uM). Reactions were incubated at room temperature for 30 minutes. A small aliquot (10 uL) was taken and quenched by adding into 190 uL of DELFIA Assay buffer containing 100 mM EDTA. The amount of phosphate transferred to biotinylated GST-ATF2 was measured using the Dissociation Enhanced Lanthanide Fluorescence Immuno-assay (DELFIA) from Perkin Elmer according to manufacturers protocol. Briefly, biotinylated GST-ATF2 was captured on streptavidin coated plates for 1 hour, washed twice, then incubated for 1 hour with a 1:1000 dilution of rabbit-anti-phospho-ATF2 antibody and a 1:3500 dilution of Europium-labeled anti-rabbit secondary antibody. Free antibody was removed with six washes, Europium was dissociated from the antibody, and Europium fluorescence was measured using an excitation wavelength of 340 nm and an emission wavelength of 615 nm. JNK2 and JNK3 kinase reactions were carried out similarly, with the exception that the final concentration of ATP was 4 uM and 2 uM, respectively.

[2] = molecular target: JNK3 (Homo sapiens, UniProt P53779); test: JNK3 kinase DELFIA (phosphorylation of biotinylated GST-ATF2); details: final ATP 2 uM
JNK3, sequence (P53779 whole entry, species assumed): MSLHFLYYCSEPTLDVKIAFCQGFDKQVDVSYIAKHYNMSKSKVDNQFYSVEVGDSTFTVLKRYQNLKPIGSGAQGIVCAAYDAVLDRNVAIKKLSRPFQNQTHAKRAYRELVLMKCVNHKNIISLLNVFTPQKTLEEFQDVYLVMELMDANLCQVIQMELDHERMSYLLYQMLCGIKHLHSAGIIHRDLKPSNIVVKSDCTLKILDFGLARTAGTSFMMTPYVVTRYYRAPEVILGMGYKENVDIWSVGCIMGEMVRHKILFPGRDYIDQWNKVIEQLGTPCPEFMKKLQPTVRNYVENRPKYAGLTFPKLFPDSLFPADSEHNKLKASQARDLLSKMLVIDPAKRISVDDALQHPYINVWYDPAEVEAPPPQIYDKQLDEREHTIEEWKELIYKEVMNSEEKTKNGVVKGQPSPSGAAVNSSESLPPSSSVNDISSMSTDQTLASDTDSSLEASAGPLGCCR
Protocol: as §1

[3] = molecular target: JNK1 (Homo sapiens, UniProt P45983); test: JNK1 kinase DELFIA (phosphorylation of biotinylated GST-ATF2)
JNK1, sequence (P45983 whole entry, species assumed): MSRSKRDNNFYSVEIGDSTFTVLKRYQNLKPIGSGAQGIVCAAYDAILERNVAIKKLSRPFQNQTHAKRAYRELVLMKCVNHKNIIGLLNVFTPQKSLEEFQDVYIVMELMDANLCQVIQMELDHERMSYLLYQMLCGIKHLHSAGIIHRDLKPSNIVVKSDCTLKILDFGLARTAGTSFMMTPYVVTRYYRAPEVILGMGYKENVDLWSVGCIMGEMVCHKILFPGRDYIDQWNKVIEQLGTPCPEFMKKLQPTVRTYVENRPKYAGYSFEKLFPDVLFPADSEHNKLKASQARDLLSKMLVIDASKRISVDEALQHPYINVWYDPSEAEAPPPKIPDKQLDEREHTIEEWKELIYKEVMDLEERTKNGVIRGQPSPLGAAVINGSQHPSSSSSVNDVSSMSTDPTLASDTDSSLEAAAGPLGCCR
Protocol: as §1

[4] = DELFIA, 2 nM JNK1, final ATP 7 uM, 10 min pre-incubation, reported as range for a group

IC50 [1] [nM]	IC50 [2] [nM]	IC50 [3, 4]	IC50 ([3]; read-out: JNK 1 IC50) [nM]	Structure (SMILES)
4 to 46	9 to 50	6 to 100 nM and 6 to 20 nM	19	Nc1nc2ccc(CNC(=O)c3cccn4c(C(=O)N[C@H](CO)c5ccccc5)c(-c5ccsc5)nc34)cc2s1 [Compound 16]
107 to 173	54 to 98	–	–	C[C@@H](NC(=O)c1c(-c2ccsc2)nc2c(C(=O)NCc3ccc4nc(N)sc4c3)cccn12)[C@@H](O)c1ccccc1 [Compound 62]
52 to 94	54 to 98	–	–	CC(C)C[C@@H](CO)NC(=O)c1c(-c2ccsc2)nc2c(C(=O)NCc3ccc4nc[nH]c4c3)cccn12 [Compound 111]
4 to 46	9 to 50	6 to 20 nM and 6 to 10 nM	8	Cc1nc2cc(CNC(=O)c3cccn4c(C(=O)N[C@H](CO)CC(C)C)c(-c5ccsc5)nc34)ccc2[nH]1 [Compound 112]
4 to 46	9 to 50	–	–	CC(C)C[C@@H](CO)NC(=O)c1c(-c2ccsc2)nc2c(C(=O)NCc3ccc4ncccc4c3)cccn12 [Compound 115]
4 to 46	9 to 50	–	–	CNc1nc2ccc(CNC(=O)c3cccn4c(C(=O)N[C@H](CO)CC(C)C)c(-c5ccsc5)nc34)cc2s1 [Compound 155]
201 to 666	209 to 479	–	–	CC(C)C[C@@H](CO)NC(=O)c1c(-c2ccsc2)nc2c(C(=O)NCC3CCN(C(=O)c4cccnc4)CC3)cccn12 [Compound 230]
1070 to 11500	16100	–	–	Cc1cc(C(=O)NCc2ccc3nc(N)sc3c2)c2nc(-c3ccsc3)c(C(=O)N[C@@H](CO)CC(C)C)n2c1 [Compound 350]

Second part, the molecule before the results:

Structure (SMILES)	IC50 [1] [nM]	IC50 [2] [nM]	IC50 [3, 4]	IC50 ([3]; read-out: JNK 1 IC50) [nM]
CC(C)C[C@@H](CO)NC(=O)c1c(-c2ccsc2)nc2c(C(=O)NCc3ccc4nc(N)sc4c3)cccn12 [Compound 14]	4 to 46	9 to 50	6 to 100 nM and 6 to 20 nM	–
CC(C)(C)[C@@H](CO)NC(=O)c1c(-c2ccsc2)nc2c(C(=O)NCc3ccc4nc(N)sc4c3)cccn12 [Compound 17]	4 to 46	9 to 50	6 to 100 nM	–
C[C@@H](CO)NC(=O)c1c(-c2ccsc2)nc2c(C(=O)NCc3ccc4nc(N)sc4c3)cccn12 [Compound 22]	52 to 94	9 to 50	6 to 100 nM	–
Nc1nc2ccc(CNC(=O)c3cccn4c(C(=O)NC[C@H]5CCCCC[C@H]5O)c(-c5ccsc5)nc34)cc2s1 [Compound 48]	107 to 173	209 to 479	6 to 100 nM	–
Nc1nc2ccc(CNC(=O)c3cccn4c(C(=O)N[C@H]5CC[C@H](O)CC5)c(-c5ccsc5)nc34)cc2s1 [Compound 56]	107 to 173	118 to 174	6 to 100 nM	–
CS(=O)(=O)c1ccc(CNC(=O)c2cccn3c(C(=O)N[C@H](CO)c4ccccc4)c(-c4ccsc4)nc23)cc1 [Compound 93]	52 to 94	54 to 98	6 to 100 nM	–
CC(C)C[C@@H](CO)NC(=O)c1c(-c2ccsc2)nc2c(C(=O)NCc3ccc4ncsc4c3)cccn12 [Compound 113]	52 to 94	54 to 98	–	–
CC[C@H](CO)NC(=O)c1c(-c2ccsc2)nc2c(C(=O)N[C@@H](C)c3ccc(S(C)(=O)=O)cc3)cccn12 [Compound 170]	1070 to 11500	118 to 174	–	–
CC[C@@H](CO)NC(=O)c1c(-c2ccsc2)nc2c(C(=O)NCc3ccc(-n4nccc4C(C)C)cc3)cccn12 [Compound 178]	201 to 666	209 to 479	–	–
CC[C@@H](CO)NC(=O)c1c(-c2ccsc2)nc2c(C(=O)NCc3ccc(Cl)nc3)cccn12 [Compound 181]	201 to 666	118 to 174	–	–
CC(C)C[C@H](CO)NC(=O)c1c(-c2ccsc2)nc2c(C(=O)NCc3ccc(S(C)(=O)=O)cc3)cccn12 [Compound 205]	52 to 94	54 to 98	–	–
CC(C)C[C@@H](CO)NC(=O)c1c(-c2ccsc2)nc2c(C(=O)NCc3ccc(N4CCCC4=O)cc3)cccn12 [Compound 206]	52 to 94	54 to 98	–	–
CC(C)C[C@@H](CO)NC(=O)c1c(-c2ccsc2)nc2c(C(=O)NCc3ccc(-c4ccccn4)s3)cccn12 [Compound 215]	52 to 94	9 to 50	–	–
